Like-named read-outs stand apart in the source and are kept apart here.
What was measured:
[1] = system: A375—NRASQ^61K cells (cell line A375.11); test: CTGlo (CellTiter-Glo 2.0) Cell Viability Assay; format: cell-based; details: for Emax: lowest % viability achieved
Experimental: Compounds of the present invention were tested for their effect on the viability of A375—NRASQ^61K cells by quantification of ATP using the CellTiter-Glo® 2.0 Cell Viability Assay (Catalog No. G9243, Promega, Madison, WI, USA). This assay produces a luminescent signal in the presence of ATP, which is indicative of metabolically active cells, making the luminescence readout proportional to the number of viable cells. A375—NRASQ^61K cells, also referred to here as cell line A375.11, (harboring BRAF homozygous V600E mutation and NRAS homozygous Q61K mutation) were purchased from ATCC (Catalog No. CRL-1619IG-2, Manassas, VA, USA).
Cells were also plated to a 384-well plate with no compound treatment, to which CellTiter-Glo® reagent was added and luminescence was read right after plating to act as a baseline signal at time of plating (To).
DMSO treated cells with no CellTiter-Glo® reagent added were used as the background or positive control (P). Viability was determined by subtracting out the average background signal (P) and normalized to the average untreated signal (N) set at 100%.

mutant BRAF V600E = mutant BRAF V600E (Homo sapiens, UniProt P15056, V600E); test: BRAF V600E HiBiT Degradation Assay in A375.10 cells
[2] = 96 h, IP, read-out: CTGlo A375.11 96 hours IP
[3] = half-maximal inhibition of cell growth, table title: A375.11 96 hours, read-out: CTGlo A375.11 96 hours GI50
[4] = 96 hours, IP, read-out: CTGlo A375.11 96 hours IP

Chain of mutant BRAF V600E (P15056 whole entry V600E): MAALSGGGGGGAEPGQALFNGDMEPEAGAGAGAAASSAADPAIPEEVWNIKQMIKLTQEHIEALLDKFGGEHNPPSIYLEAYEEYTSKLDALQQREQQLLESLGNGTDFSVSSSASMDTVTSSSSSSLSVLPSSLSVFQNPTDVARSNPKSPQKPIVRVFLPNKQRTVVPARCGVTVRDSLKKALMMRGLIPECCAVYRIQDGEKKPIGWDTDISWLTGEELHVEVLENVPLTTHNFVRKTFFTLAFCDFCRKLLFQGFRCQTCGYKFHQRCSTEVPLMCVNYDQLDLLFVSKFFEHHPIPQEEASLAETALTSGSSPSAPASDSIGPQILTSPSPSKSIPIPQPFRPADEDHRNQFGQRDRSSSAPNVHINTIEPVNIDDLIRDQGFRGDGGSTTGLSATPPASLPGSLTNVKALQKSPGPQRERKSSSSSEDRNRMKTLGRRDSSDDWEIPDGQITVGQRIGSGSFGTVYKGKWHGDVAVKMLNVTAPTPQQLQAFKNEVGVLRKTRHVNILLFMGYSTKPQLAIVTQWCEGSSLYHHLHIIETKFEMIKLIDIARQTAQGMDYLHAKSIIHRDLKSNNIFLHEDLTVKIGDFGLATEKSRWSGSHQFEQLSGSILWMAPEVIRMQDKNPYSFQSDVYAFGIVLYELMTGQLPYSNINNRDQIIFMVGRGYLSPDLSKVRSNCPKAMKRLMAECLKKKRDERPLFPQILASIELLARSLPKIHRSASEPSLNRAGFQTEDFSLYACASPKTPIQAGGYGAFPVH

SMILES: CCN(C)S(=O)(=O)Nc1ccc(F)c(Oc2ccc3ncn([C@@H]4COC5(CCN(C(=O)CN6CCC(c7ccc(C8CCC(=O)NC8=O)cc7OS(=O)(=O)F)CC6)CC5)C4)c(=O)c3c2)c1C#N (stereo partly drawn) [drawing 1168]
- GI50 [1, 2]: 1 to 10 µM
- Emax ([1]; 96 hours): 60 to 95%
- GI50 [1, 3]: > 10 µM

SMILES: CCN(C)S(=O)(=O)Nc1ccc(F)c(Oc2ccc3ncn([C@@H]4COC5(CCN(C(=O)CN6CCC(c7ccc(C8CCC(=O)NC8=O)cc7OS(C)(=O)=O)CC6)CC5)C4)c(=O)c3c2)c1C#N (stereo partly drawn) [drawing 1182]
- GI50 [1, 4]: > 10 µM
- Emax ([1]; 96 hours): 60 to 95%
- GI50 [1, 3]: > 10 µM

SMILES: CCN(C)S(=O)(=O)Nc1ccc(F)c(Oc2ccc3ncn([C@H]4COC5(CCN(C(=O)CN6CCC(c7ccc(C8CCC(=O)NC8=O)cc7OS(=O)(=O)F)CC6)CC5)C4)c(=O)c3c2)c1C#N (stereo partly drawn) [drawing 1169]
- GI50 [1, 2]: 1 to 10 µM
- Emax ([1]; 96 hours): < 60%
- GI50 [1, 3]: > 10 µM

SMILES: CCN(C)S(=O)(=O)Nc1ccc(F)c(Oc2ccc3ncn([C@H]4COC5(CCN(C(=O)CN6CCC(c7ccc(N8CCC(=O)NC8=O)cc7OS(=O)(=O)F)CC6)CC5)C4)c(=O)c3c2)c1C#N [drawing 1180]
- GI50 [1, 2]: 1 to 10 µM
- Emax ([1]; 96 hours): 60 to 95%
- GI50 [1, 3]: > 10 µM

SMILES: CCN(C)S(=O)(=O)Nc1ccc(F)c(Oc2ccc3ncn([C@H]4COC5(CCN(C(=O)CN6CCC(c7ccc(NC8CCC(=O)NC8=O)cc7OS(C)(=O)=O)CC6)CC5)C4)c(=O)c3c2)c1C#N (stereo partly drawn) [drawing 1176]
- GI50 [1, 4]: 1 to 10 µM
- Emax ([1]; 96 hours): < 60%
- GI50 [1, 3]: > 10 µM

SMILES: CCN(C)S(=O)(=O)Nc1ccc(F)c(Oc2ccc3ncn([C@H]4COC5(CCN(C(=O)CN6CCN(c7ccc(N8CCC(=O)NC8=O)cc7OS(=O)(=O)F)CC6)CC5)C4)c(=O)c3c2)c1C#N [drawing 1172]
- GI50 [1, 2]: > 10 µM
- Emax ([1]; 96 hours): 60 to 95%
- GI50 [1, 3]: > 10 µM

SMILES: CCN(C)S(=O)(=O)Nc1ccc(F)c(Oc2ccc3ncn([C@H]4COC5(CCN(C(=O)CN6CCC(c7ccc(NC8CCC(=O)NC8=O)cc7S(=O)(=O)F)CC6)CC5)C4)c(=O)c3c2)c1C#N (stereo partly drawn) [drawing 1178]
- GI50 [1, 2]: > 10 µM
- Emax ([1]; 96 hours): 60 to 95%
- GI50 [1, 3]: > 10 µM

SMILES: CCN(C)S(=O)(=O)Nc1ccc(F)c(Oc2ccc3ncn([C@@H]4COC5(CCN(C(=O)CN6CCC(c7ccc(N8CCC(=O)NC8=O)cc7OS(C)(=O)=O)CC6)CC5)C4)c(=O)c3c2)c1C#N [drawing 1173]
- GI50 [1, 4]: 1 to 10 µM
- Emax ([1]; 96 hours): 60 to 95%
- GI50 [1, 3]: > 10 µM

SMILES: CCN(C)S(=O)(=O)Nc1ccc(F)c(Oc2ccc3ncn([C@H]4COC5(CCN(C(=O)CN6CCN(c7ccc(C8CCC(=O)NC8=O)cc7OS(=O)(=O)F)CC6)CC5)C4)c(=O)c3c2)c1C#N (stereo partly drawn) [drawing 1170]
- GI50 [1, 2]: < 1 µM
- Emax ([1]; 96 hours): 60 to 95%
- GI50 [1, 3]: > 10 µM

SMILES: CCN(C)S(=O)(=O)Nc1ccc(F)c(Oc2ccc3ncn([C@H]4COC5(CCN(C(=O)CN6CCC(c7ccc(OC8CCC(=O)NC8=O)cc7S(=O)(=O)F)CC6)CC5)C4)c(=O)c3c2)c1C#N (stereo partly drawn) [drawing 1181]
- GI50 [1, 2]: > 10 µM
- Emax ([1]; 96 hours): 60 to 95%
- GI50 [1, 3]: > 10 µM

SMILES: CCN(C)S(=O)(=O)Nc1ccc(F)c(Oc2ccc3ncn([C@@H]4COC5(CCN(C(=O)CN6CCC(c7ccc(OC8CCC(=O)NC8=O)cc7OS(C)(=O)=O)CC6)CC5)C4)c(=O)c3c2)c1C#N (stereo partly drawn) [drawing 1187]
- GI50 [1, 4]: > 10 µM
- Emax ([1]; 96 hours): 60 to 95%
- GI50 [1, 3]: > 10 µM

SMILES: CCN(C)S(=O)(=O)Nc1ccc(F)c(Oc2ccc3ncn([C@@H]4COC5(CCN(C(=O)CN6CCC(c7ccc(NC8CCC(=O)NC8=O)cc7S(=O)(=O)F)CC6)CC5)C4)c(=O)c3c2)c1C#N (stereo partly drawn) [drawing 1177]
- GI50 [1, 2]: > 10 µM
- Emax ([1]; 96 hours): 60 to 95%
- GI50 [1, 3]: > 10 µM

SMILES: CCN(C)S(=O)(=O)Nc1ccc(F)c(Oc2ccc3ncn([C@@H]4COC5(CCN(C(=O)CN6CCC(c7ccc(N8CCC(=O)NC8=O)cc7OS(=O)(=O)F)CC6)CC5)C4)c(=O)c3c2)c1C#N [drawing 1171]
- GI50 [1, 2]: > 10 µM
- Emax ([1]; 96 hours): 60 to 95%
- GI50 [1, 3]: > 10 µM

SMILES: CCN(C)S(=O)(=O)Nc1ccc(F)c(Oc2ccc3ncn([C@@H]4COC5(CCN(C(=O)CN6CCC(c7ccc(NC8CCC(=O)NC8=O)cc7OS(C)(=O)=O)CC6)CC5)C4)c(=O)c3c2)c1C#N (stereo partly drawn) [drawing 1226]
- HiBIT-Degradation A375.10 BRAF 24 hours IP nM (mutant BRAF V600E; 24 hours, A375.10 cells, inflection point of the dose-response curve): ** (<10 μM and >1 μM is **)
- DC50 (mutant BRAF V600E; read-out: HiBIT-Degradation A375.10 BRAF 24 hours DC50 nM, 24 hours, A375.10 cells): 1000 to 10000 nM
- Emax (mutant BRAF V600E; read-out: HiBIT-Degradation A375.10 BRAF 24 hours Emax): < 60%

From patent US20260274856A1, “COVALENT CEREBLON LIGANDS” (C4 THERAPEUTICS, INC., priority 2023, published 2026)
